Tests used:
Type in all cases: cell-based
[1] = tested on: Human Pancreatic Carcinoma Cells (PANC-1); assay: Tumor cell proliferation assay (MTT), PANC-1; details: for inhibition at 10 µM: concentration of 10^−5 mol/L, preliminary screening, 72 hours, read-out: Inhibition rate % PANC-1; for IC50: secondary screening, 48 hours
Excerpt: (§1) The assay used generally is the blue tetrazolium bromide (MTT) method. […] The amount of formazan can be detected by the microplate reader through the absorption value at 570 nm. The amount of formazan product generated is proportional to the number of living cells in the sample, so the OD value may reflect the number of living cells and the ability of a test drug to inhibit or kill cells. The MTT assay may be used in determining the ability of different compounds of the present invention to inhibit one or more cancer cells proliferation. Similar assays can be designed along the same lines for any cancer cell using techniques well known in the art.
(§2) The assay used generally is the blue tetrazolium bromide (MTT) method. […] Intracellular purple formazan salt crystals can be solved in DMSO and the absorption value at 570 nm is detected by the microplate reader, then the number of living cells can be detected indirectly. So MTT assay may be used to determine the ability of a compound of the present invention to inhibit cell proliferation. Similar assays can be designed along the same lines for any cancer cell using techniques well known in the art.
2.2.4 Human Pancreatic Carcinoma Cells (PANC-1)
(§3) The cells of the 2.2.1, 2.2.2, 2.2.3, 2.2.4, 2.2.5 cultured with RPMI 1640 containing 12% calf serum in the condition of 37° C., 5% CO2.
(§4) 2.3.1 Cell seeding: Trypsinize the cell by 0.05% trypsin-EDTA and add RPMI 1640 medium (DMEM or 5A) containing 12% calf serum. Count the number, then dilute to 1.67×10^4/ml. Add 180 ul/well to the 96 well plate (3000 cells/well).
(§5) 2.3.2 Culture: cells are incubated for 24 hours at 37° C. under 5% CO2.
(§6) 2.3.3 Preliminary screening: The compounds are firstly diluted to 0.1 mol/L with DMSO, and then diluted to three concentrations of 10^−5 mol/L, 10^−6 mol/L and 10^−7 mol/L. Add 20 ul test compounds to the 96 well plate and incubate for 72 hours. Each group has three parallel wells and all experiments repeat three times. Each inhibition ratio is calculated, then an average value of three times is taken as the measured value. 2.3.4 Staining 2.3.4.1 Attached cell: add 20 ul/well MTT to the 96-well plates; incubate for 4 hours in the incubator. Pour out the culture medium in the well and add 100 ul/well DMSO. Shake the plate for 5 min. 2.3.4.2 Suspension cell: add 20 ul/well MTT to the 96-well plates; incubate for 4 hours in the incubator. Add 50 ul/well 20% SDS and incubate for overnight in the incubator. 2.3.5 Reading the plates: read the absorbance A570-A630 with the Infinite M200 microtiter plate reader. Calculate the inhibition ratio of the test compounds. 2.3.6 Secondary screening: the compounds whose inhibition ratio is greater than 50% at the concentrations of 10^−5 mol/L in the preliminary screening will be picked out for Secondary screening. Dilute these compounds to ten concentrations: 10^−5 mol/L, 0.5×10^−5 mol/L, 10^−6 mol/L, 0.8×10^−6 mol/L, 0.6×10^−6 mol/L, 0.4×10^−6 mol/L, 0.2×10^−6 mol/L, 10^−7 mol/L, 0.8×10^−7 mol/L and 0.4×10^−7 mol/L. Add 20 ul test compound solution to the 96 well plate and incubate for 48 hours. Each group has three parallel wells and all experiments repeat for three times. Read the plates and calculate the inhibition ratio according to the preliminary screening method. 2.3.7 Calculate the Inhibition Ratio of Cell Proliferation and the IC50
(§7) According to the inhibition ratio of cell proliferation at the different concentrations of the compound, inhibition ratio of 50% of the test compound is calculated through the logarithm of the concentration of the compound with the Logit [I] linear regression, and an average value of three times is taken as the measured value of a sample.

[2] = tested on: Human Non-Small Cell Lung Cancer Cell Line (A549); assay: Tumor cell proliferation assay (MTT), A549; details: for inhibition at 10 µM: concentration of 10^−5 mol/L, preliminary screening, 72 hours, read-out: Inhibition rate % A549; for IC50: secondary screening, 48 hours
Excerpt: as §1, §2
2.2.2 Human Non-Small Cell Lung Cancer Cell Line (A549)
as §3, §4, §5, §6, §7

[3] = tested on: Human Pancreatic Carcinoma Cell Line (BXPC-3); assay: Tumor cell proliferation assay (MTT), BXPC-3; details: for inhibition at 10 µM: concentration of 10^−5 mol/L, preliminary screening, 72 hours, read-out: Inhibition rate % BXPC-3; for IC50: secondary screening, 48 hours

Row | SMILES | IC50 [3] | IC50 [1] | IC50 [2] | inhibition at 10 µM [1] | inhibition at 10 µM [2] | inhibition at 10 µM [3]
1 | Cc1[nH]c2c(c1C(=O)NCCO)CCC/C2=C1/C(=O)Nc2ccccc21 [I-8, N-(2-hydroxyethyl)-2-methyl-7-[1,2-dihydro-2-oxo-3H-indol-(Z)-3-ylidene]-4,5,6,7-tetrahydro-1H-indole-3-carboxamide] | 1170 nM |  |  | 5.66% | 0.24% | 74.9%
2 | Cc1[nH]c2c(c1C(=O)NCC(O)CN1CCOCC1)CCC/C2=C1/C(=O)Nc2ccc(F)cc21 (centres unmarked) [I-68, N-(2-hydroxy-3-morpholinopropyl)-2-methyl-7-[1,2-dihydro-5-fluoro-2-oxo-3H-indol-(Z)-3-ylidene]-4,5,6,7-tetrahydro-1H-indole-3-carboxamide] | 6490 nM |  | 5490 nM | 34.3% | 61.1% | 60.7%
3 | CCN(CC)CC(O)CNC(=O)c1c(C)[nH]c2c1CCC/C2=C1/C(=O)Nc2ccccc21 (centres unmarked) [I-63, N-(3-(diethylamino)-2-hydroxypropyl)-2-methyl-7-[1,2-dihydro-2-oxo-3H-indol-(Z)-3-ylidene]-4,5,6,7-tetrahydro-1H-indole-3-carboxamide] | 1160 nM | 660 nM | 2010 nM | 92.1% | 61.8% | 97.3%
4 | CCN(CC)CCNC(=O)c1c(C)[nH]c2c1CCC/C2=C1/C(=O)Nc2ccc(F)cc21 [I-2, N-(2-(diethylamino)ethyl)-2-methyl-7-[1,2-dihydro-5-fluoro-2-oxo-3H-indol-(Z)-3-ylidene]-4,5,6,7-tetrahydro-1H-indole-3-carboxamide] | 520 nM |  |  | 70.6% | 10.2% | 79.4%
5 | CCN(CC)CCNC(=O)c1c(C)[nH]c2c1CCC/C2=C1/C(=O)Nc2ccc(Cl)cc21 [I-3, N-(2-(diethylamino)ethyl)-2-methyl-7-[1,2-dihydro-5-chloro-2-oxo-3H-indol-(Z)-3-ylidene]-4,5,6,7-tetrahydro-1H-indole-3-carboxamide] | 1950 nM | 1940 nM | 4950 nM | 69.8% | 55.5% | 96%
6 | CCN(CC)CCNC(=O)c1c(C)[nH]c2c1CCC/C2=C1/C(=O)Nc2ccc(C)cc21 [I-4, N-(2-(diethylamino)ethyl)-2-methyl-7-[1,2-dihydro-5-methyl-2-oxo-3H-indol-(Z)-3-ylidene]-4,5,6,7-tetrahydro-1H-indole-3-carboxamide] |  |  | 1010 nM |  | 67.5% | 78.4%
7 | Cc1[nH]c2c(c1C(=O)NCCO)CCC/C2=C1/C(=O)Nc2ccc(F)cc21 [I-9, N-(2-hydroxyethyl)-2-methyl-7-[1,2-dihydro-5-fluoro-2-oxo-3H-indol-(Z)-3-ylidene]-4,5,6,7-tetrahydro-1H-indole-3-carboxamide] |  |  |  | 0% | 16.3% | 63.7%
8 | Cc1[nH]c2c(c1C(=O)N1CCN(C)CC1)CCC/C2=C1/C(=O)Nc2ccc(F)cc21 [I-14, 2-methyl-3-(4-methylpiperazine-1-carbonyl)-7-[1,2-dihydro-5-fluoro-2-oxo-3H-indol-(Z)-3-ylidene]-4,5,6,7-tetrahydro-1H-indole] |  |  |  | 14% | 4.43% | 68.3%
9 | CCN(CC)CCNC(=O)c1c(C)[nH]c2c1CCC/C2=C1/C(=O)Nc2ccccc21 [I-5, N-(2-(diethylamino)ethyl)-2-methyl-7-[1,2-dihydro-2-oxo-3H-indol-(Z)-3-ylidene]-4,5,6,7-tetrahydro-1H-indole-3-carboxamide] | 520 nM |  |  | 47.8% | 6.71% | 89.4%
10 | Cc1[nH]c2c(c1C(=O)NCCCN(C)C)CCC/C2=C1/C(=O)Nc2ccc(Cl)cc21 [I-7, N-(3-(dimethylamino)propyl)-2-methyl-7-[1,2-dihydro-5-chloro-2-oxo-3H-indol-(Z)-3-ylidene]-4,5,6,7-tetrahydro-1H-indole-3-carboxamide] | 3430 nM | 6630 nM |  | 51.8% |  | 69.5%
11 | Cc1[nH]c2c(c1C(=O)NCCN(C)C)CCC/C2=C1/C(=O)Nc2ccc(F)cc21 [I-6, N-(2-(dimethylamino)ethyl)-2-methyl-7-[1,2-dihydro-5-fluoro-2-oxo-3H-indol-(Z)-3-ylidene]-4,5,6,7-tetrahydro-1H-indole-3-carboxamide] | 5990 nM |  |  | 19.8% |  | 64.9%

Now from value to molecule, other results behind:

Row | IC50 [3] | IC50 [1] | IC50 [2] | SMILES | inhibition at 10 µM [1] | inhibition at 10 µM [2] | inhibition at 10 µM [3]
12 | 8700 nM | 5530 nM | 7120 nM | Cc1[nH]c2c(c1C(=O)NCC(O)CN1CCN(C)CC1)CCC/C2=C1/C(=O)Nc2ccc(F)cc21 (centres unmarked) [I-77, N-[2-hydroxy-3-(4-methylpiperazin-1-yl)propyl]-2-methyl-7-[1,2-dihydro-5-fluoro-2-oxo-3H-indol-(Z)-3-ylidene]-4,5,6,7-tetrahydro-1H-indole-3-carboxamide] | 61.9% | 50.8% | 45.9%
13 | 2730 nM | 1480 nM | 2350 nM | Cc1[nH]c2c(c1C(=O)NCC(O)CN1CCCC1)CCC/C2=C1/C(=O)Nc2ccc(F)cc21 (centres unmarked) [I-71, N-(2-hydroxy-3-(pyrrolidin-1-yl)propyl)-2-methyl-7-[1,2-dihydro-5-fluoro-2-oxo-3H-indol-(Z)-3-ylidene]-4,5,6,7-tetrahydro-1H-indole-3-carboxamide] | 97.4% | 71.7% | 98.9%
14 | 970 nM | 1630 nM | 1030 nM | Cc1[nH]c2c(c1C(=O)NCC(O)CN1CCCC1)CCC/C2=C1/C(=O)Nc2ccccc21 (centres unmarked) [I-70, N-(2-hydroxy-3-(pyrrolidin-1-yl)propyl)-2-methyl-7-[1,2-dihydro-2-oxo-3H-indol-(Z)-3-ylidene]-4,5,6,7-tetrahydro-1H-indole-3-carboxamide] | 97.4% | 76.3% | 98.7%
15 | 240 nM |  |  | Cc1[nH]c2c(c1C(=O)NCC(O)CN1CCCCC1)CCC/C2=C1/C(=O)Nc2ccc(F)cc21 (centres unmarked) [I-74, N-(2-hydroxy-3-(piperidin-1-yl)propyl)-2-methyl-7-[1,2-dihydro-5-fluoro-2-oxo-3H-indol-(Z)-3-ylidene]-4,5,6,7-tetrahydro-1H-indole-3-carboxamide] | 93.6% | 1.27% | 32.1%
16 | 1240 nM |  |  | Cc1[nH]c2c(c1C(=O)NCC(O)CN1CCCCC1)CCC/C2=C1/C(=O)Nc2ccccc21 (centres unmarked) [I-73, N-(2-hydroxy-3-(piperidin-1-yl)propyl)-2-methyl-7-[1,2-dihydro-2-oxo-3H-indol-(Z)-3-ylidene]-4,5,6,7-tetrahydro-1H-indole-3-carboxamide] | 48% | 2.54% | 90.2%

From patent US8084621B2, “3-Pyrrolo[b]cyclohexylene-2-dihydroindolinone derivatives and uses thereof” (Jiangsu Simcere Pharmaceutical R&D Co. Ltd., priority 2006, dated 2011)
